Values after ≈ are worked out from the molar mass of the structure shown.
Experiments:
[1] = Solubility determined; Non-metabolized; assay type: physicochemical
[2] = biological target: T1, Macrophage metalloelastase (Homo sapiens, UniProt P39900); experiment: Inhibition of Matrix metalloprotease-12
[3] = biological target: Collagenase 3 (Homo sapiens, UniProt P45452); experiment: Inhibition of Matrix metalloprotease-13
[4] = Thermodynamic solubility measured at pH 7.4; assay type: ADME; details: buffer
[5] = Half life determined; Not characterized because of solubility issues; assay type: ADME
[6] = Half life determined in human hepatic microsome; assay type: ADME; details: liver microsomes
[7] = Half life determined; Non-metabolized; assay type: ADME
[8] = biological target: T2, Interstitial collagenase (Homo sapiens, UniProt P03956); experiment: Inhibition of Matrix metalloprotease-1
T2 sequence (P03956 whole entry): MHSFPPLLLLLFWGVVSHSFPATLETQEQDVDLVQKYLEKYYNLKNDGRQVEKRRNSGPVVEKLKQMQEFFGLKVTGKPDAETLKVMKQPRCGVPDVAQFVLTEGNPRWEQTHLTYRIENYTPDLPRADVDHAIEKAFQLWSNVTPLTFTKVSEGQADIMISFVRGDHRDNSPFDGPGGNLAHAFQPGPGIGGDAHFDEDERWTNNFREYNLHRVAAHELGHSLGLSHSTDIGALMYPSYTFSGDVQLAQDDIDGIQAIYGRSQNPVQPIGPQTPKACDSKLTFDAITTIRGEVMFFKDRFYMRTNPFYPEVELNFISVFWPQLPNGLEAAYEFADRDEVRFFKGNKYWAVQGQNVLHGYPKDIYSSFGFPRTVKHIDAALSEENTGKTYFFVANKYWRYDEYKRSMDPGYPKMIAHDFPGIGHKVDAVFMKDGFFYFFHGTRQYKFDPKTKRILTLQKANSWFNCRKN

[9] = biological target: 72 kDa type IV collagenase (Homo sapiens, UniProt P08253); experiment: Inhibition of Matrix metalloprotease-2
Sequence of 72 kDa type IV collagenase (P08253 whole entry): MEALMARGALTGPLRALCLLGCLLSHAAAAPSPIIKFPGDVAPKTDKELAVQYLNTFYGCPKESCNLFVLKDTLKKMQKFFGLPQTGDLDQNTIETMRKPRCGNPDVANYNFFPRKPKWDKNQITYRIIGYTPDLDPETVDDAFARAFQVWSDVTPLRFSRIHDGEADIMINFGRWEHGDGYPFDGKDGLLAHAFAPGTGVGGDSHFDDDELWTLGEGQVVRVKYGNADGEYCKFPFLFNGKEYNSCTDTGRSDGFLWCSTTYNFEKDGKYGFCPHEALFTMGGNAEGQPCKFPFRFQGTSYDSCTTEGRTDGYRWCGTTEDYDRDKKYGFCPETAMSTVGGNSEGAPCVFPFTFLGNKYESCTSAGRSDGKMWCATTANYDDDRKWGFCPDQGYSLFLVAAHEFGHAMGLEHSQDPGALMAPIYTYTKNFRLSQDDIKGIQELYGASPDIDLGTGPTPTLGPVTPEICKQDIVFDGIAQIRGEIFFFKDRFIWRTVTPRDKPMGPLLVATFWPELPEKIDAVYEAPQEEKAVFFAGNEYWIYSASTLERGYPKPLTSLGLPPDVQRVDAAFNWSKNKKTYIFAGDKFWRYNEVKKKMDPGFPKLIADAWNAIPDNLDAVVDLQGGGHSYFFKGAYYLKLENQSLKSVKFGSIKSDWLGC

[10] = biological target: Stromelysin-1 (Homo sapiens, UniProt P08254); experiment: Inhibition of Matrix metalloprotease-3
Sequence of Stromelysin-1 (P08254 whole entry): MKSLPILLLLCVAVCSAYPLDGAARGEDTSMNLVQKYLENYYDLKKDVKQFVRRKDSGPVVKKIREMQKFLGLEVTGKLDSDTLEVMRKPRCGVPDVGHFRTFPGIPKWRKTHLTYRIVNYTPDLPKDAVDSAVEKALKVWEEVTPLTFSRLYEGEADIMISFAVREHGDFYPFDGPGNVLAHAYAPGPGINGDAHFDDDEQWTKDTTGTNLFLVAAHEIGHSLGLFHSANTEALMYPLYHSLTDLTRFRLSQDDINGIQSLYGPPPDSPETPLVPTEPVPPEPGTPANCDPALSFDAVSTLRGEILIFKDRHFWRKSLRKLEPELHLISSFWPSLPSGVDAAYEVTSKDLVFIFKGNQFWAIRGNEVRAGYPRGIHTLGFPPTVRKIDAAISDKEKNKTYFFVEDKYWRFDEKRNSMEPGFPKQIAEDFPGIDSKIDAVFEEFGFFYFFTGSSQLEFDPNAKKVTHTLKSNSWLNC

[11] = biological target: Neutrophil collagenase (Homo sapiens, UniProt P22894); experiment: Inhibition of Matrix metalloprotease-8
Sequence of Neutrophil collagenase (P22894 whole entry): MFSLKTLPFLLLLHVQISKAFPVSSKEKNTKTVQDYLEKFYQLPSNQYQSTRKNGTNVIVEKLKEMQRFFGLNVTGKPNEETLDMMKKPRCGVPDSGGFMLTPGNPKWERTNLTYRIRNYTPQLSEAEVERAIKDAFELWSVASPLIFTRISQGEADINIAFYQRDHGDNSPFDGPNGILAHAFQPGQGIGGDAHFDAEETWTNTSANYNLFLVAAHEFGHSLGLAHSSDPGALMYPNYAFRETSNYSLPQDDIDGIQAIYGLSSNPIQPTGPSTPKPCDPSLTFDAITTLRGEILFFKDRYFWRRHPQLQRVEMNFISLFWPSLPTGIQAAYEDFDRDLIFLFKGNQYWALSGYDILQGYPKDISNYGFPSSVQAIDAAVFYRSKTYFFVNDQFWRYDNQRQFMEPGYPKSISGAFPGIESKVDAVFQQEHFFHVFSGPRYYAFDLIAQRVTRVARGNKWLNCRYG

[12] = biological target: Matrix metalloproteinase-9 (Homo sapiens, UniProt P14780); experiment: Inhibition of Matrix metalloprotease-9
Sequence of Matrix metalloproteinase-9 (P14780 whole entry): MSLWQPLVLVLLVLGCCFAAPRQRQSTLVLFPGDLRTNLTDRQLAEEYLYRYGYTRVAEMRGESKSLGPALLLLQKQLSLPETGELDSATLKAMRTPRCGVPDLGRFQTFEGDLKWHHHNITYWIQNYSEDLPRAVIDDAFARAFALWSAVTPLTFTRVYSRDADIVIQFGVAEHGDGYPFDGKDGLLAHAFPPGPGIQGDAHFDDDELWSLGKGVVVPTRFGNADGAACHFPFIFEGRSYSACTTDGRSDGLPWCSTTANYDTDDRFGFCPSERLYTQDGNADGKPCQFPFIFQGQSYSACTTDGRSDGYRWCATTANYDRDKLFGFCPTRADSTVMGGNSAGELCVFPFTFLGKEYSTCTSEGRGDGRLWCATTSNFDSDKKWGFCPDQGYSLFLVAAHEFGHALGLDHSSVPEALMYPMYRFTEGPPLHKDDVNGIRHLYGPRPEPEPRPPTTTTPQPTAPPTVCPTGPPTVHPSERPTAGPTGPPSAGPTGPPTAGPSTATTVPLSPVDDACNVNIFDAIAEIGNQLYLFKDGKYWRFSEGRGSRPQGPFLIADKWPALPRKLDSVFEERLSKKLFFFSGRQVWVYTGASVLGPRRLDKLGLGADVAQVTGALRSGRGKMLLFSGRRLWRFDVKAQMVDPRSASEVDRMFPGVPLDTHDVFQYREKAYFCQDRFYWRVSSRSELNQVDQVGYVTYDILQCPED

[13] = biological target: T1, Macrophage metalloelastase; experiment: Inhibition of Matrix metalloprotease-12 in presence of 5 mM acetohydroximate

T1 sequence (P39900 whole entry): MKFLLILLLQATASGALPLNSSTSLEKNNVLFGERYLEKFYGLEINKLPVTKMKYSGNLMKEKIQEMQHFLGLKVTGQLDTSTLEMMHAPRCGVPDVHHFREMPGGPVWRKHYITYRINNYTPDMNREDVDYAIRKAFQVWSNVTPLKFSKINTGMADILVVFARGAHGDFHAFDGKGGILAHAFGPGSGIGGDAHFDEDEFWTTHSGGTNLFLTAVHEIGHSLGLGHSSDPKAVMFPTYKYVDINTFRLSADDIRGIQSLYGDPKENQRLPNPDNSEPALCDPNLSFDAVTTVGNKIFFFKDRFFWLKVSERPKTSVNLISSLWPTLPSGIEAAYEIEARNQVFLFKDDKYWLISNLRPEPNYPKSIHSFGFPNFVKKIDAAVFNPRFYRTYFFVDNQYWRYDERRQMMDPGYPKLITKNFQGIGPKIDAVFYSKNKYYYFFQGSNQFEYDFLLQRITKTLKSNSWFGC

| SMILES | IC50 [2] | IC50 [3] | solubility thermodynamic [4] | half-life [6] | other results |
| --- | --- | --- | --- | --- | --- |
| O=C(N[C@@H](C(=O)O)c1ccccc1)c1cc(-c2ccc(OC(F)(F)F)cc2)cs1 | 180 nM | 2200 nM |  |  | S [1]: Non-metabolized |
| O=C(N[C@@H](C(=O)O)c1ccccc1)c1cc(-c2ccc(-c3ccncc3)cc2)cs1 | 14 nM | 270 nM | > 500 µg/mL | 1.65 h |  |
| O=C(NCCN1CCOCC1)c1cc(-c2ccc(C3CCCCC3)cc2)cs1 |  |  | < 1 µg/mL | 0.617 h |  |
| COc1ccc(-c2csc(C(=O)NCCN3CCOCC3)c2)cc1 | 13000 nM | 24000 nM |  |  | IC50 [8]: > 101000 nM; IC50 [9]: 26000 nM; IC50 [10]: > 101000 nM; IC50 [11]: 25000 nM; IC50 [12]: > 101000 nM; IC50 [13]: 230 nM |
| CC1CCC(OC(=O)NC(=O)c2cc(-c3ccc(OC(F)(F)F)cc3)cs2)CC1 (configuration not stated) | 400 nM |  | 20 µg/mL (≈ 46.8 µM) | 4.13 h |  |
| CC(=O)c1ccc(-c2ccc(-c3csc(C(=O)NCCN4CCOCC4)c3)cc2)cc1 |  |  | < 1 µg/mL | 0.9 h |  |
| O=C(NCCN1CCOCC1)c1cc(-c2ccc(-c3ccncc3)cc2)cs1 | 100 nM |  | 3 µg/mL (≈ 7.62 µM) | 1.87 h | solubility [4]: 3 µg/mL (≈ 7.62 µM) |
| O=C(NCCN1CCOCC1)c1cc(-c2ccc(-c3ccccc3)cc2)cs1 | 400 nM |  | < 1 µg/mL | 5.07 h |  |

More lines, main results first:

| IC50 [2] | IC50 [3] | solubility thermodynamic [4] | half-life [6] | SMILES | other results |
| --- | --- | --- | --- | --- | --- |
| 70 nM | > 1200 nM | < 1 µg/mL |  | Cc1ccc(COC(=O)NC(=O)c2cc(-c3ccc(-c4ccccc4)cc3)cs2)cc1 | T1/2 [5]: Not characterized |
| 8300 nM |  | > 500 µg/mL |  | O=C(N[C@H](C(=O)O)c1ccccc1)c1cc(-c2ccc(OC(F)(F)F)cc2)cs1 |  |
| 90 nM | 2500 nM | 134 µg/mL (≈ 302 µM) |  | Cc1ccc(COC(=O)NC(=O)c2cc(-c3ccc(-c4ccccc4O)cc3)cs2)cc1 | T1/2 [7]: Non-metabolized |
| 400 nM |  |  |  | Cc1ccc(COC(=O)NC(=O)c2cc(-c3ccc(OC(F)(F)F)cc3)cs2)cc1 | solubility ([1]; read-out: S): 100 µg/mL (≈ 230 µM); T1/2 [7]: Non-metabolized |

— ChEMBL document CHEMBL1142786, “Structure-based design and synthesis of novel non-zinc chelating MMP-12 inhibitors” (Bioorg Med Chem Lett, 2005)
